Results as given in patent US20240309016A1, “MACROCYCLIC HETEROCYCLE COMPOUNDS AND USE THEREOF” (TAKEDA PHARMACEUTICAL COMPANY LIMITED, priority 2023, published 2024).

Molecular target: T1, human OX2 receptor (Homo sapiens, UniProt O43614)
T1 construct: expressed in transfected cells
T1 sequence (O43614 1-444): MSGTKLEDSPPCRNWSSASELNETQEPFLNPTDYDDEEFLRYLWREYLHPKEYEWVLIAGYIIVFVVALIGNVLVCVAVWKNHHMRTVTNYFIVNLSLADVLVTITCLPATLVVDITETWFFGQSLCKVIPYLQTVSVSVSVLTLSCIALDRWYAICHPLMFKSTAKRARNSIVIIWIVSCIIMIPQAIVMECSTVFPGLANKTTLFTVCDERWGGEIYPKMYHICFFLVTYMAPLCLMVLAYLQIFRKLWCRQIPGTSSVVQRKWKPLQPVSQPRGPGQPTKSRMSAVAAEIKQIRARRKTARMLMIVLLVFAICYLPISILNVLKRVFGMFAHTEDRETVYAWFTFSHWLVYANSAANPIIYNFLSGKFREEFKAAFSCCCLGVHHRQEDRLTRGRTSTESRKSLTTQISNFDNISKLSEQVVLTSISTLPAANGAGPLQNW
Test: Measurement of orexin type 2 receptor agonist activity (Experimental Example 2; Fluo-4 AM calcium fluorescence, FDSS μCELL)
Assay type: cell-based
Settings: compound at 3 μM; CHO cells expressing human OX2 receptor; DMSO = 0%, 10 nM orexin A (human) = 100%
Experimental: In order to obtain cell clones that stably express human orexin type 2 receptor, human orexin type 2 (residues 1-444, NCBI Reference Sequence: AK314279) was constructed in a pcDNA3.1 (+) vector (Invitrogen) to express in mammalian cells. This plasmid DNA was transfected into CHO-K1 cells by electroporation, and stable clones were obtained by limiting dilution using resistance to G418 as a selection marker.
CHO cells in which human OX2 receptor was forcibly expressed were seeded at 10,000 cells/well into a 384-well black transparent bottom plate (BD falcon), and were incubated at 37° C., 5% CO2 for 1 day after incubation at room temperature for 30 minutes. After removing the cell plate medium, assay buffer containing calcium indicator A (HBSS (Thermo Fisher Scientific), 20 mM HEPES (Thermo Fisher Scientific), 0.1% BSA (Sigma-Aldrich), 2.5 μg/mL Fluo-4 AM (Dojin Kagaku), 0.08% Pluronic F127 (Dojin Kagaku), 1.25 mM probenecid (Dojin Kagaku)) was added at 30 μL/well. After incubation in a 5% CO2 incubator at 37° C. for 30 minutes, it was incubated at room temperature for another 30 minutes. Add 10 μL/well of the test compound diluted with assay buffer B (HBSS, 20 mM HEPES, 0.1% BSA), and use FDSS μCELL (Hamamatsu Photonics) to measure the fluorescence value every 1 second for 1 minute, and then every 2 seconds for 1 minute. It was measured for 1 minute and 40 seconds. The amount of fluorescence value when DMSO is added instead of the test compound is defined as 0%, and the amount of fluorescence value when orexin A (human) (Peptide Institute) with a final concentration of 10 nM is added is defined as 100%. The activity (%) of the test compound was calculated. Table 2-1, 2-2, 2-3, and 2-4 show the activity of each compound at a concentration of 3 μM.

| SMILES | OX2R agonist activity (3 μM, %) |
| --- | --- |
| CCS(=O)(=O)N[C@H]1CCN2C(=O)NCc3ccc(C)c(n3)Oc3cccc(c3)C[C@@H]12 [Example 3, N-[(15aS,16S)-7-methyl-1-oxo-2,3,15a,16,17,18-hexahydro-1H,15H-4,8-(azeno)-10,14-(metheno)pyrrolo[1,2-j][1,8,10]oxadiazacyclo-heptadecin-16-yl]ethanesulfonamide] | 101% |
| Cc1ccc2nc1OCc1cccc(c1F)C[C@H]1[C@@H](NS(C)(=O)=O)C(F)(F)CN1C(=O)NC2 [Example 84, N-[(16aS,17R)-18,18,21-trifluoro-7-methyl-1-oxo-2,3,16a,17,18,19-hexahydro-1H,10H,16H-4,8-(azeno)-15,11-(metheno)pyrrolo[1,2-j][1,8,10]oxadiazacyclo-octadecin-17-yl]methanesulfonamide] | 104% |
| CS(=O)(=O)N[C@H]1[C@@H](F)CN2C(=O)NCc3ccc(C(F)F)c(n3)Oc3cccc(c3F)C[C@@H]12 [Example 18, N-[(15aS,16R,17S)-7-(difluoromethyl)-17,20-difluoro-1-oxo-2,3,15a,16,17,18-hexahydro-1H,15H-8,4-(azeno)-10,14-(metheno)pyrrolo[1,2-j][1,8,10]oxadiazacyclo-heptadecin-16-yl]methanesulfonamide] | 104% |
| Cc1ccc2nc1Oc1cccc(c1)C[C@H]1[C@@H](NS(C)(=O)=O)CCN1C(=O)N(C)C2 [Example 40, N-[(15aS,16S)-2,7-dimethyl-1-oxo-2,3,15a,16,17,18-hexahydro-1H,15H-4,8-(azeno)-10,14-(metheno)pyrrolo[1,2-j][1,8,10]oxadiazacyclo-heptadecin-16-yl]methanesulfonamide] | 103% |
| Cc1ccc2nc1COc1cccc(c1F)C[C@H]1[C@@H](NS(C)(=O)=O)C(F)(F)CN1C(=O)CO2 [Example 66, N-[(16aS,17R)-18,18,21-trifluoro-7-methyl-1-oxo-1,2,16a,17,18,19-hexahydro-9H,16H-4,8-(azeno)-11,15-(metheno)pyrrolo[1,2-d][1,12,4]dioxazacyclo-octadecin-17-yl]methanesulfonamide] | 97% |
| CCS(=O)(=O)N[C@H]1[C@@H](F)CN2C(=O)COc3ccc(Br)c(n3)Oc3cccc(c3)C[C@@H]12 [Example 76, N-[(15aS,16R,17S)-7-bromo-17-fluoro-1-oxo-1,2,15a,16,17,18-hexahydro-15H-4,8-(azeno)-14,10-(metheno)pyrrolo[1,2-d][1,12,4]dioxazacyclo-heptadecin-16-yl]ethanesulfonamide] | 96% |
| CCS(=O)(=O)N[C@H]1[C@@H](F)CN2C(=O)NCc3ccc(C)c(n3)Oc3cccc(c3F)C[C@@H]12 [Example 25, N-[(15aS,16R,17S)-17,20-difluoro-7-methyl-1-oxo-2,3,15a,16,17,18-hexahydro-1H,15H-4,8-(azeno)-14,10-(metheno)pyrrolo[1,2-j][1,8,10]oxadiazacyclo-heptadecin-16-yl]ethanesulfonamide] | 105% |
| Cc1cnc2nc1Oc1cccc(c1F)C[C@H]1[C@@H](NS(C)(=O)=O)C(F)(F)CN1C(=O)C1CCN21 (stereo partly drawn) [Example 52, N-[(15aS,16R)-17,17,21-trifluoro-7-methyl-20-oxo-1,2,15a,16,17,18,20,20a-octahydro-15H-4,8-(azeno)-10,14-(metheno)azeto[1,2-g]pyrrolo[1,2-j][1,5,7,10]oxatriazacyclo-heptadecin-16-yl]methanesulfonamide (optical isomer)] | 93% |
| CN(C)S(=O)(=O)N[C@H]1[C@@H](F)CN2C(=O)NCc3ccc(Cl)c(n3)Oc3cccc(c3F)C[C@@H]12 [Example 34, N′-[(15aS,16R,17S)-7-chloro-17,20-difluoro-1-oxo-2,3,15a,16,17,18-hexahydro-1H,15H-4,8-(azeno)-14,10-(metheno)pyrrolo[1,2-j][1,8,10]oxadiazacyclo-heptadecin-16-yl]-N,N-dimethylsulfuric diamide] | 93% |
| CS(=O)(=O)N[C@H]1[C@@H](F)CN2C(=O)NCc3cc(c(Cl)cn3)Oc3cccc(c3F)C[C@@H]12 [Example 44, N-[(15aS,16R,17S)-7-chloro-17,20-difluoro-1-oxo-2,3,15a,16,17,18-hexahydro-1H,15H-4,8:14,10-di(metheno)pyrrolo[1,2-j][1,5,8,10]oxatriazacyclo-heptadecin-16-yl]methanesulfonamide] | 84% |
| Cc1ccc2nc1Oc1cc(ccc1F)C[C@H]1[C@@H](NS(C)(=O)=O)C(F)(F)CN1C(=O)NC2 (relative stereo) [Example 86, N-[rel-(15aS,16R)-11,17,17-trifluoro-7-methyl-1-oxo-2,3,15a,16,17,18-hexahydro-1H,15H-4,8-(azeno)-14,10-(metheno)pyrrolo[1,2-j][1,8,10]oxadiazacyclo-heptadecin-16-yl]methanesulfonamide (optical isomer)] | 102% |
| CS(=O)(=O)N[C@H]1[C@@H](F)CN2C(=O)COc3ccc(Cl)c(n3)Cc3cccc(c3F)C[C@@H]12 [Example 67, N-[(15aS,16R,17S)-7-chloro-17,20-difluoro-1-oxo-1,2,15a,16,17,18-hexahydro-9H,15H-4,8-(azeno)-14,10-(metheno)pyrrolo[1,2-d][1,4]oxazacycloheptadecin-16-yl]methanesulfonamide] | 103% |
| CCS(=O)(=O)N[C@H]1[C@@H](F)CN2C(=O)N(C)Cc3ccc(Cl)c(n3)Oc3cccc(c3)C[C@@H]12 [Example 70, N-[(15aS,16R,17S)-7-chloro-17-fluoro-2-methyl-1-oxo-2,3,15a,16,17,18-hexahydro-1H,15H-4,8-(azeno)-10,14-(metheno)pyrrolo[1,2-j][1,8,10]oxadiazacyclo-heptadecin-16-yl]ethanesulfonamide] | 103% |
| Cc1ccc2nc1Oc1cccc(c1F)C[C@H]1[C@@H](NS(=O)(=O)C(F)F)C(F)(F)CN1C(=O)NC2 [Example 43, 1,1-difluoro-N-[(15aS,16R)-17,17,20-trifluoro-7-methyl-1-oxo-2,3,15a,16,17,18-hexahydro-1H,15H-4,8-(azeno)-10,14-(metheno)pyrrolo[1,2-j][1,8,10]oxadiazacyclo-heptadecin-16-yl]methanesulfonamide] | 101% |
| Cc1ncc2nc1Oc1cccc(c1F)C[C@H]1[C@@H](NS(C)(=O)=O)C(F)(F)CN1C(=O)CO2 [Example 65, N-[(15aS,16R)-17,17,20-trifluoro-7-methyl-1-oxo-1,2,15a,16,17,18-hexahydro-15H-4,8-(azeno)-10,14-(metheno)pyrrolo[1,2-j][1,7,4,10]dioxadiazacyclo-heptadecin-16-yl]methanesulfonamide] | 102% |
| Cc1cnc2nc1Oc1cccc(c1F)C[C@H]1[C@@H](NS(C)(=O)=O)C(F)(F)CN1C(=O)[C@@H]1C[C@@H](F)CN21 [Example 74, N-[(2R,16aS,17R,21aS)-2,18,18,22-tetrafluoro-8-methyl-21-oxo-2,3,16a,17,18,19,21,21a-octahydro-1H,16H-5,9-(azeno)-11,15-(metheno)dipyrrolo[1,2-g:1′,2′-j][1,5,7,10]oxatriazacyclo-heptadecin-17-yl]methanesulfonamide] | 96% |
| CCS(=O)(=O)N[C@H]1[C@@H](F)CN2C(=O)COc3ccc(Cl)c(n3)Oc3cccc(c3F)C[C@@H]12 [Example 80, N-[(15aS,16R,17S)-7-chloro-17,20-difluoro-1-oxo-1,2,15a,16,17,18-hexahydro-15H-4,8-(azeno)-14,10-(metheno)pyrrolo[1,2-d][1,12,4]dioxazacyclo-heptadecin-16-yl]ethanesulfonamide] | 100% |
| CS(=O)(=O)N[C@H]1[C@@H](F)CN2C(=O)NCc3ccc(Cl)c(n3)Oc3cccc(c3F)C[C@@H]12 [Example 15, N-[(15aS,16R,17S)-7-chloro-17,20-difluoro-1-oxo-2,3,15a,16,17,18-hexahydro-1H,15H-4,8-(azeno)-14,10-(metheno)pyrrolo[1,2-j][1,8,10]oxadiazacyclo-heptadecin-16-yl]methanesulfonamide] | 104% |
